Source: PubChem BioAssay (NCI)
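Values below derive from 48-hour exposures of cells grown in 96-well plates, with endpoints linearly interpolated between the two concentrations bracketing the appropriate inhibition level. The concentration for 50% growth inhibition is given as GI50. TGI marks complete inhibition of growth.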

Legend:
Assay in all cases: growth of human tumour cells (NCI), 48 h
[1] = test system: OVCAR-8 ovarian
[2] = test system: SK-MEL-28 melanoma
[3] = test system: HT29 colon
[4] = test system: SNB-19 CNS
[5] = test system: EKVX NSCLC
[6] = test system: NCI-H23 lung
[7] = test system: OVCAR-4 ovarian
[8] = test system: SF-539 CNS
[9] = test system: MDA-MB-435
[10] = test system: PC-3 prostate

| SMILES | TGI [1] [µM] | TGI [2] [µM] | TGI [3] [µM] | TGI [4] [µM] | TGI [5] [µM] | TGI [6] [µM] | TGI [7] [µM] | TGI [8] [µM] | GI50 [1] [µM] | GI50 [2] [µM] | GI50 [3] [µM] | GI50 [4] [µM] | GI50 [5] [µM] | GI50 [9] [µM] | TGI [9] [µM] | GI50 [6] [µM] | GI50 [10] [µM] | TGI [10] [µM] | GI50 [8] [µM] | GI50 [7] [µM] |
| --- | --- | --- | --- | --- | --- | --- | --- | --- | --- | --- | --- | --- | --- | --- | --- | --- | --- | --- | --- | --- |
| O=c1cc(-c2ccccn2)[nH]c2cccc(F)c12 | > 100 | > 100 | > 100 | > 100 | > 100 | > 100 | > 100 | > 100 |  |  |  |  |  |  |  |  |  |  |  |  |
| N#C/C(=C1\SCC(=O)N1c1ccccc1)c1nc2ccccc2[nH]1 | > 100 | > 100 | > 100 | > 100 | > 100 | > 100 | > 100 | > 100 |  |  |  |  |  |  |  |  |  |  |  |  |
| C#CC1(O)CCC2C3CCc4cc(Oc5nc(F)nc(-c6c7ccccc7c7n6CCS7)n5)ccc4C3CC[C@@]21C (some centres not stated) | > 100 | 57.9 | 73.7 | 70.6 |  | 42.7 | 68.6 | 33 |  |  |  |  |  |  |  |  |  |  |  |  |
| CCCn1c(SCCSc2c3ccccc3c(-c3nc(F)nc(F)n3)n2CCC)c2ccccc2c1-c1nc(F)nc(F)n1 | > 100 | > 100 | > 100 | > 100 | > 100 | > 100 | > 100 | > 100 |  |  |  |  |  |  |  |  |  |  |  |  |
| Cc1ccc(/C=C(\C#N)c2cc3ccccc3n2C)cc1 | > 100 | > 100 | > 100 | > 100 | > 100 | > 100 |  | 1.02 | 0.565 | > 100 | 0.356 | 0.414 | 0.58 | 0.0502 | 0.334 | 0.541 | 0.403 | > 100 | 0.294 |  |
| CC(C)N(C(=O)c1cccc(C(=O)N(C(C)C)C(C)C)c1)C(C)C | > 100 | > 100 | > 100 | > 100 | > 100 | > 100 | > 100 | > 100 |  |  |  |  |  |  |  |  |  |  |  |  |
| [N-]=[N+]=NC(c1cn(C2CC(O)C(CO)O2)c(=O)[nH]c1=O)C(Cl)Br (configuration not stated) | > 100 | > 100 | > 100 | > 100 | > 100 | > 100 |  | > 100 |  |  |  |  |  |  |  |  |  |  |  |  |
| ClC(Cl)=C(Cl)C1(Cl)CC1COCc1ccccc1 (configuration not stated) | > 100 | > 100 | 86.3 | > 100 | > 100 | > 100 | > 100 | > 100 |  |  |  |  |  |  |  |  |  |  |  |  |
| CCO/C=C1\N=C(c2ccc(Cl)c(Cl)c2)OC1=O | > 100 | > 100 | > 100 | > 100 | > 100 | > 100 | > 100 | > 100 |  |  |  |  |  |  |  |  |  |  |  |  |
| C=CC(=O)N1C/C(=C\c2ccc(Cl)c(Cl)c2)C(=O)/C(=C/c2ccc(Cl)c(Cl)c2)C1 | 0.274 | 1.5 | 0.323 |  |  | 0.438 | 0.122 | 0.367 |  |  |  |  |  |  |  |  |  |  |  |  |
| C=C1CC(CC)(CCN2C(=O)c3ccccc3C2=O)OC1=O (configuration not stated) | 36.2 |  | 37.3 |  | 31.1 | 29.9 | 27.8 | 46.6 |  |  |  |  |  |  |  |  |  |  |  |  |
| COc1ccc2c(c1)/C(=C\c1ccncc1)C(=O)N2 | 32.7 |  |  | 61.1 | 33 | 43.5 |  | 11.4 | 10.3 |  |  | 19.4 | 13.9 | 6.57 | 39.3 | 12.3 | 25 | > 100 | 2.98 |  |
| Cc1cc2c(c(C(N)=O)c1C)-c1cccc(F)c1C2=O | > 100 | > 100 | > 100 | > 100 | > 100 | > 100 | > 100 | > 100 |  |  |  |  |  |  |  |  |  |  |  |  |
| C/C(CC(=O)Nc1cccc(Cl)c1C)=N\NC(N)=S | > 100 | > 100 | > 100 |  | > 100 | > 100 |  | > 100 |  |  |  |  |  |  |  |  |  |  |  |  |
| C[N+]1=c2c3cccc4cccc(c(=O)n2CC1)c43 | 80.9 | 30.1 | 64.4 |  | 87.5 | 32.3 | 43.9 | 32.2 |  |  |  |  |  |  |  |  |  |  |  |  |
| C=CO/N=[N+](\[O-])N(CC)CC | > 100 | > 100 | > 100 | > 100 | > 100 | > 100 | > 100 | > 100 |  |  |  |  |  |  | > 100 |  |  |  |  |  |
| CCC[CH2][Sn]([CH2]CCC)([O]C(=O)c1cc(OC)c(OC)cc1OC)[O][Sn]([CH2]CCC)([CH2]CCC)[O]C(=O)c1cc(OC)c(OC)cc1OC | 1.89 | 1.02 | 2.82 | 1.08 | 3.09 | 1.19 | 2.96 | 1.01 | 0.583 | 0.297 | 1.22 | 0.27 | 1.7 |  |  | 0.313 |  |  | 0.314 | 1.33 |
